# Data as given in patent US12459951B2, “Compounds that interact with RAS superfamily proteins for treatment of cancers, inflammatory diseases, rasopathies, and fibrotic disease” (SHY Therapeutics, LLC, priority 2022, dated 2025).
# Experiments:
# Test in all cases: Proliferation Assay (Cell Viability Assay)
# Format in all cases: cell-based
# A375 (wild type Kras) = settings: Homo sapiens, A-375; Proliferation assay, A375; read-out: A375 IC50 (nM) Melanoma
# Method: (§1) Cell lines: these Human tumor-derived cell lines were purchased from American Type Culture Collection. Human tumor-derived pancreatic cancer cell line MiaPaca-2 (expressing KRAS G12C mutant) and Panc-1 (expressing KRas G12D mutant), and Human non-small cell lung cancer (NSCLC) cell line A549 (expressing KRas G12S mutant), and Human melanoma cell line A375 (wild type Kras) were grown in complete DMEM-High Glucose medium. Human tumor-derived pancreatic cancer cell lines SU86.86 (expressing KRas G12D mutant), BxPC3 (expressing wild type K-Ras), and Human non-small cell lung cancer (NSCLC) cell lines NCI-H441 (expressing KRas G12S mutant), NCI-H1975 (expressing wild type KRas), NCI-H358 (expressing KRas G12C mutant), NCI-H1299 (expressing NRas Q61H mutant), and Human colon cancer cell line SW-620 (expressing KRas G12V mutant), Human triple negative breast cancer cell line HCC-1806 (expressing wild type KRas), and Human tumor-derived multiple myeloma cell line MM.1R (expressing wild type KRAS), were grown in RPMI 1640 medium. Human tumor-derived breast cancer cell line BT-549 (expressing wild type KRAS) was grown in RPMI 1640 medium in the presence of 11.8U insulin. Human tumor-derived pancreatic cancer cell line HPAF-II (expressing KRas G12D mutant), Human triple negative breast cancer cell line BT-20 (expressing wild type KRas), and Human colon cancer cell line LS123 (expressing KRas G12S mutant), were grown in EMEM medium. Human tumor-derived pancreatic cancer cell line CF-PAC1 (expressing KRas G12V mutant) was frown in IMDM medium, and Human colon cancer cell line HT29 (expressing wild type KRas) was grown in McCoy's 5A medium. The colon cancer cell line GP2d (expressing KRas G12D mutant) was purchased from MilliporeSigma and grown in DMEM-High Glucose medium. All cell lines were supplemented with penicillin (100 U/mL), streptomycin (100 μg/mL), and 10% heat-inactivated FBS at 37° C. in a humidified incubator with 5% CO2.
# (§2) Method: Cells were plated at 2000 to 5000 cells/well density in 96-wells plate and cultured overnight. Small molecules that were tested were added to the cells in the final concentration of 10 μM in the presence of 0.3% DMSO and 10% FBS, and incubated for 2-4 days at 37° C. in a humidified incubator with 5% CO2. For IC50 value determination, serial dilutions of compounds were added to cells under the same conditions.
# (§3) Assay: At the end of the incubation period, cell viability was determined using the CellTiter 96® Aqueous One Solution Cell Proliferation Assay according to manufacturer specifications (Promega, Madison, WI). The percentage of small molecules inhibition of cellular proliferation was calculated from raw data.
# [1] = test system: NCI-H358 (expressing KRas G12C mutant); settings: Homo sapiens; Proliferation assay, NCI-H358; read-out: NCI-H358 IC50 (nM) NSCLC
# Method: as §1, §2, §3
# [2] = test system: BT-549 (expressing wild type KRAS); settings: Homo sapiens, BT-549; Proliferation assay, BT549; read-out: BT549 IC50 (nM) TNBC
# Method: as §1, §2, §3
# [3] = test system: MM.1R (expressing wild type KRAS); settings: Homo sapiens, read-out: MM.1R IC50 (nM) Multiple Myloma
# Method: as §1, §2, §3
# [4] = test system: GP2d (expressing KRas G12D mutant); settings: Homo sapiens, Proliferation assay, read-out: GP2d IC50 (nM) Colorectal
# Method: as §1, §2, §3
SMILES,IC50 (A375 (wild type Kras)) [nM],IC50 [1] [nM],IC50 [2] [nM],IC50 [3] [nM],IC50 [4] [nM]
"COc1cc(Nc2nc(-c3nccn3C)nn3cc(-c4ccn(C)n4)c(C)c23)ncc1C [Compound 235, N-(4-Methoxy-5-methylpyridin-2-yl)-5-methyl-2-(1-methyl-1H-imidazol-2-yl)-6-(1-methyl-1H-pyrazol-3-yl)pyrrolo[2,1-f][1,2,4]triazin-4-amine]",> 50,> 50,10 to 50,< 1,> 50
"COc1cc(Nc2nc(-c3nccn3C)nn3cc(-c4ccn(C)n4)c(C)c23)ncc1C1CC1 [Compound 238, N-(5-Cyclopropyl-4-methoxypyridin-2-yl)-5-methyl-2-(1-methyl-1H-imidazol-2-yl)-6-(1-methyl-1H-pyrazol-3-yl)pyrrolo[2,1-f][1,2,4]triazin-4-amine]",> 50,> 50,10 to 50,< 1,> 50
"Cc1c(-c2ccn(C)n2)cn2nc(-c3nccn3C)nc(Nc3cc(N4CCOCC4)ccn3)c12 [Compound 222, 5-Methyl-2-(1-methyl-1H-imidazol-2-yl)-6-(1-methyl-1H-pyrazol-3-yl)-N-(4-morpholinopyridin-2-yl)pyrrolo[2,1-f][1,2,4]triazin-4-amine]",> 50,10 to 50,10 to 50,< 1,> 50
"Cc1c(-c2ccn(C)n2)cn2nc(-c3nccn3C)nc(Nc3cc4c(cn3)CCO4)c12 [Compound 221, N-(5-Methyl-2-(1-methyl-1H-imidazol-2-yl)-6-(1-methyl-1H-pyrazol-3-yl)pyrrolo[2,1-f][1,2,4]triazin-4-yl)-2,3-dihydrofuro[3,2-c]pyridin-6-amine]",> 50,10 to 50,> 50,< 1,> 50
